Results as given in the NIST ThermoML archive (doi:10.1021/je060271a).
“And” between values parts separate entries of the source, which are not always exact repeats. Identical values can stand only once. ± gives the expanded uncertainty stated by the source.

Conditions: Liquid, Vibrating tube method

CCCCCCCC(=O)OCC(COC(=O)CCCCCCC)(COC(=O)CCCCCCC)COC(=O)CCCCCCC [pentaerythritol tetraoctanoate]
mass density (323.16 K, 4757.8 kPa): 943.8 ± 1.2 kg/m3
mass density (323.16 K, 4775.8 kPa): 944 ± 1.2 kg/m3
mass density (323.16 K, 4790.7 kPa): 943.8 ± 1.2 kg/m3
mass density (323.16 K, 4806.4 kPa): 943.9 ± 1.2 kg/m3
mass density (323.16 K, 4825.1 kPa): 943.9 ± 1.2 kg/m3
mass density (323.16 K, 4840.2 kPa): 943.9 ± 1.2 kg/m3
mass density (323.16 K, 4856.4 kPa): 943.9 ± 1.2 kg/m3
mass density (323.16 K, 4875.1 kPa): 943.9 ± 1.2 kg/m3
mass density (323.16 K, 5122 kPa): 944.1 ± 1.2 kg/m3
mass density (323.16 K, 5143.5 kPa): 944.1 ± 1.2 kg/m3
mass density (323.16 K, 5161 kPa): 944.2 ± 1.2 kg/m3
mass density (323.16 K, 5179 kPa): 944.2 ± 1.2 kg/m3
mass density (323.16 K, 5197.1 kPa): 944.1 ± 1.2 kg/m3
mass density (323.16 K, 5335.6 kPa): 944.3 ± 1.2 kg/m3
mass density (323.16 K, 5398.2 kPa): 944.3 ± 1.2 kg/m3
mass density (323.16 K, 5417.6 kPa): 944.3 ± 1.2 kg/m3
mass density (323.16 K, 5438 kPa): 944.3 ± 1.2 kg/m3
mass density (323.16 K, 5461.9 kPa): 944.3 ± 1.2 kg/m3
mass density (323.16 K, 5481.8 kPa): 944.5 ± 1.2 kg/m3
mass density (323.16 K, 5502.5 kPa): 944.5 ± 1.2 kg/m3
mass density (323.16 K, 5527.1 kPa): 944.4 ± 1.2 kg/m3
mass density (323.16 K, 5547.9 kPa): 944.4 ± 1.2 kg/m3
mass density (323.16 K, 5568.6 kPa): 944.4 ± 1.2 kg/m3
mass density (323.16 K, 5590.2 kPa): 944.4 ± 1.2 kg/m3
mass density (323.16 K, 5611.9 kPa): 944.4 ± 1.2 kg/m3
mass density (323.16 K, 5637.6 kPa): 944.4 ± 1.2 kg/m3
mass density (323.16 K, 5659.6 kPa): 944.4 ± 1.2 kg/m3
mass density (323.16 K, 5703.9 kPa): 944.5 ± 1.2 kg/m3
mass density (323.16 K, 5774.4 kPa): 944.6 ± 1.2 kg/m3
mass density (323.16 K, 5797.1 kPa): 944.6 ± 1.2 kg/m3
mass density (323.16 K, 5824.6 kPa): 944.7 ± 1.2 kg/m3
mass density (323.16 K, 5870.9 kPa): 944.6 ± 1.2 kg/m3
mass density (323.16 K, 6078.5 kPa): 944.7 ± 1.2 kg/m3
mass density (323.16 K, 6238.8 kPa): 944.8 ± 1.2 kg/m3
mass density (323.16 K, 6265.6 kPa): 944.9 ± 1.2 kg/m3
mass density (323.16 K, 6297.7 kPa): 944.9 ± 1.2 kg/m3
mass density (323.16 K, 6324.9 kPa): 944.9 ± 1.2 kg/m3
mass density (323.16 K, 6352.7 kPa): 944.9 ± 1.2 kg/m3
mass density (323.16 K, 6380.2 kPa): 944.9 ± 1.2 kg/m3
mass density (323.16 K, 12370 kPa): 948.8 ± 1.2 kg/m3
mass density (323.16 K, 12396 kPa): 948.8 ± 1.2 kg/m3
mass density (323.16 K, 12424 kPa): 948.8 ± 1.2 kg/m3
mass density (323.16 K, 20026 kPa): 953.6 ± 1.2 kg/m3
mass density (323.16 K, 21868 kPa): 954.6 ± 1.2 kg/m3
mass density (323.16 K, 21910 kPa): 954.7 ± 1.2 kg/m3
mass density (323.16 K, 22807 kPa): 955.3 ± 1.2 kg/m3
mass density (323.16 K, 27149 kPa): 957.8 ± 1.2 kg/m3
mass density (323.16 K, 27197 kPa): 957.9 ± 1.2 kg/m3
mass density (323.16 K, 27237 kPa): 957.9 ± 1.2 kg/m3
mass density (323.16 K, 27277 kPa): 957.9 ± 1.2 kg/m3
mass density (323.16 K, 27317 kPa): 957.9 ± 1.2 kg/m3
mass density (323.16 K, 27366 kPa): 957.9 ± 1.2 kg/m3
mass density (323.16 K, 27451 kPa): 958 ± 1.2 kg/m3
mass density (323.16 K, 27504 kPa): 958 ± 1.2 kg/m3
mass density (323.16 K, 27997 kPa): 958.3 ± 1.2 kg/m3
mass density (323.16 K, 28020 kPa): 958.4 ± 1.2 kg/m3
mass density (323.16 K, 28046 kPa): 958.3 ± 1.2 kg/m3
mass density (323.16 K, 28069 kPa): 958.3 ± 1.2 kg/m3
mass density (343.14 K, 4667.8 kPa): 929.4 ± 1.1 kg/m3
mass density (343.14 K, 4690.1 kPa): 929.4 ± 1.1 kg/m3
mass density (343.14 K, 8016.3 kPa): 931.8 ± 1.2 kg/m3
mass density (343.14 K, 8048.6 kPa): 931.8 ± 1.2 kg/m3
mass density (343.14 K, 8086.2 kPa): 932 ± 1.2 kg/m3
mass density (343.14 K, 8118.6 kPa): 931.9 ± 1.2 kg/m3
mass density (343.14 K, 8397.9 kPa): 932.1 ± 1.2 kg/m3
mass density (343.14 K, 8438.9 kPa): 932.1 ± 1.2 kg/m3
mass density (343.14 K, 8473.8 kPa): 932.1 ± 1.2 kg/m3
mass density (343.14 K, 8822.1 kPa): 932.4 ± 1.2 kg/m3
mass density (343.14 K, 8860.4 kPa): 932.5 ± 1.2 kg/m3
mass density (343.14 K, 8906.8 kPa): 932.5 ± 1.2 kg/m3
mass density (343.14 K, 8945 kPa): 932.5 ± 1.2 kg/m3
mass density (343.14 K, 9418.7 kPa): 932.8 ± 1.2 kg/m3
mass density (343.14 K, 10399 kPa): 933.5 ± 1.2 kg/m3
mass density (343.14 K, 11681 kPa): 934.4 ± 1.2 kg/m3
mass density (343.14 K, 13765 kPa): 935.9 ± 1.2 kg/m3
mass density (343.14 K, 16874 kPa): 938 ± 1.2 kg/m3
mass density (343.14 K, 17179 kPa): 938.2 ± 1.2 kg/m3
mass density (343.14 K, 17211 kPa): 938.2 ± 1.2 kg/m3
mass density (343.14 K, 17250 kPa): 938.2 ± 1.2 kg/m3
mass density (343.14 K, 17283 kPa): 938.3 ± 1.2 kg/m3
mass density (343.14 K, 17315 kPa): 938.2 ± 1.2 kg/m3
mass density (343.14 K, 20086 kPa): 940.3 ± 1.2 kg/m3
mass density (343.14 K, 20133 kPa): 940.1 ± 1.2 kg/m3
mass density (343.14 K, 20456 kPa): 940.4 ± 1.2 kg/m3
mass density (343.14 K, 20478 kPa): 940.5 ± 1.2 kg/m3
mass density (343.14 K, 20501 kPa): 940.3 ± 1.2 kg/m3
mass density (343.14 K, 22979 kPa): 942 ± 1.2 kg/m3
mass density (343.14 K, 24214 kPa): 942.8 ± 1.2 kg/m3
mass density (343.14 K, 26657 kPa): 944.4 ± 1.2 kg/m3
mass density (343.14 K, 30407 kPa): 946.7 ± 1.2 kg/m3
mass density (343.14 K, 30444 kPa): 946.7 ± 1.2 kg/m3
mass density (343.14 K, 30488 kPa): 946.6 ± 1.2 kg/m3
mass density (343.14 K, 30968 kPa): 947 ± 1.2 kg/m3
mass density (343.14 K, 32801 kPa): 948 ± 1.2 kg/m3
mass density (343.15 K, 105.1 kPa): 926 ± 1.1 kg/m3
mass density (343.15 K, 105.3 kPa): 926.1 ± 1.1 kg/m3 and 926 ± 1.1 kg/m3 and 926.2 ± 1.1 kg/m3
mass density (343.15 K, 105.5 kPa): 926 ± 1.1 kg/m3
mass density (343.15 K, 105.6 kPa): 925.9 ± 1.1 kg/m3
mass density (343.15 K, 106 kPa): 926.1 ± 1.1 kg/m3
mass density (343.15 K, 108.9 kPa): 926 ± 1.1 kg/m3
mass density (343.15 K, 123.5 kPa): 926.1 ± 1.1 kg/m3
mass density (343.15 K, 154.3 kPa): 926 ± 1.1 kg/m3
mass density (343.15 K, 224 kPa): 926.1 ± 1.1 kg/m3
mass density (343.15 K, 227.5 kPa): 926.1 ± 1.1 kg/m3
mass density (343.15 K, 231.8 kPa): 926 ± 1.1 kg/m3
mass density (343.15 K, 235.3 kPa): 926.1 ± 1.1 kg/m3
mass density (343.15 K, 239.5 kPa): 926.1 ± 1.1 kg/m3
mass density (343.15 K, 243.8 kPa): 926.3 ± 1.1 kg/m3
mass density (343.15 K, 248 kPa): 926.2 ± 1.1 kg/m3
mass density (343.15 K, 253 kPa): 926.2 ± 1.1 kg/m3
mass density (343.15 K, 257.4 kPa): 926.1 ± 1.1 kg/m3
mass density (343.15 K, 262.8 kPa): 926.2 ± 1.1 kg/m3
mass density (343.15 K, 268.2 kPa): 926.1 ± 1.1 kg/m3
mass density (343.15 K, 273.2 kPa): 926.1 ± 1.1 kg/m3
mass density (343.15 K, 279.6 kPa): 926.1 ± 1.1 kg/m3
mass density (343.15 K, 285.2 kPa): 926.2 ± 1.1 kg/m3
mass density (343.15 K, 292.1 kPa): 926.2 ± 1.1 kg/m3
mass density (343.15 K, 299.6 kPa): 926.2 ± 1.1 kg/m3
mass density (343.15 K, 305.7 kPa): 926.2 ± 1.1 kg/m3
mass density (343.15 K, 313.9 kPa): 926.1 ± 1.1 kg/m3
mass density (343.15 K, 321 kPa): 926.1 ± 1.1 kg/m3
mass density (343.15 K, 329.7 kPa): 926.3 ± 1.1 kg/m3
mass density (343.15 K, 338 kPa): 926.3 ± 1.1 kg/m3
mass density (343.15 K, 347.9 kPa): 926.2 ± 1.1 kg/m3
mass density (343.15 K, 358.4 kPa): 926.1 ± 1.1 kg/m3
mass density (343.15 K, 367.9 kPa): 926.2 ± 1.1 kg/m3
mass density (343.15 K, 379.9 kPa): 926.1 ± 1.1 kg/m3
mass density (343.15 K, 392.9 kPa): 926.3 ± 1.1 kg/m3
mass density (343.15 K, 404.2 kPa): 926 ± 1.1 kg/m3
mass density (343.15 K, 419.5 kPa): 926.3 ± 1.1 kg/m3
mass density (343.15 K, 433.8 kPa): 926.1 ± 1.1 kg/m3
mass density (343.15 K, 449.4 kPa): 926.1 ± 1.1 kg/m3
mass density (343.15 K, 460.9 kPa): 926.1 ± 1.1 kg/m3
mass density (343.15 K, 471.1 kPa): 926.2 ± 1.1 kg/m3
mass density (343.15 K, 480.2 kPa): 926.3 ± 1.1 kg/m3
mass density (343.15 K, 491.8 kPa): 926.5 ± 1.1 kg/m3
mass density (343.15 K, 504 kPa): 926.2 ± 1.1 kg/m3
mass density (343.15 K, 514.2 kPa): 926.3 ± 1.1 kg/m3
mass density (343.15 K, 527.6 kPa): 926.3 ± 1.1 kg/m3
mass density (343.15 K, 538.9 kPa): 926.2 ± 1.1 kg/m3
mass density (343.15 K, 553.3 kPa): 926.3 ± 1.1 kg/m3
mass density (343.15 K, 568.4 kPa): 926.4 ± 1.1 kg/m3
mass density (343.15 K, 582.5 kPa): 926.4 ± 1.1 kg/m3
mass density (343.15 K, 596.2 kPa): 926.4 ± 1.1 kg/m3
mass density (343.15 K, 613.8 kPa): 926.4 ± 1.1 kg/m3
mass density (343.15 K, 632.2 kPa): 926.4 ± 1.1 kg/m3
mass density (343.15 K, 648.4 kPa): 926.4 ± 1.1 kg/m3
